Data reported in patent US11440903B2, “Salt form and crystal form of compound as FGFR4 inhibitor and preparation method thereof” (GUANGDONG ZHONGSHENG PHARMACEUTICAL CO., LTD, priority 2017, dated 2022).
Read-outs that look alike come from different tables or passages of the source.

Experiment: Solubility test in biological media (FaSSIF, FeSSIF, SGF) and water, 37° C.
Type: physicochemical
Details: for Status (24 h) / solubility at 24 h / pH 24 hours: 37° C.; for Status (24 h): about 4 mg in 2 mL; for solubility at 24 h: salt forms converted to salt concentrations, read-out: Solubility (mg/mL) 24 hours; for pH 24 hours: supernatant; for pH 0 hour: initial
Procedure: Step 1: Preparation of Control Solutions (0.2 mg/mL, calculated by free base)
2 mg the crystal form B of the compound represented by formula (I) (or 2.4 mg the crystal form E of the compound represented by formula (II)) as a control was precisely weighed and placed into a 40 mL glass vial, and a diluent (10 mL) was precisely added. The reaction solution was subjected to ultrasonic treatment for 20 min to sufficiently dissolve, then cooled to room temperature and shaked well. Two control solutions (STD #1, STD #2) were formulated in accordance with this method.
Step 2: Preparation of Linear Solutions
The control solution STD #1 of the crystal form B of the compound represented by formula (I) was 1×, 10×, 100×, 1000× and 2000× (free base LOQ) diluted, and designated as the linear solutions L1, L2, L3, L4 and L5; the control solution STD #1 of the crystal form E of the compound represented by formula (II) was 1×, 10×, 100× and 1000× (methanesulfonate LOQ) diluted, and designated as the linear solutions L1, L2, L3, L4.
Step 3: Solubility Test of the crystal form B of the compound represented by formula (I), the crystal form G of the compound represented by formula (III) and the crystal form E of the compound represented by formula (II) in biological media and water
4 samples (about 4 mg) of each of the crystal form B of the compound represented by formula (I), the crystal form E of the compound represented by formula (II), and the crystal form G of the compound represented by formula (III) were added into 12 glass vials (4 mL), respectively, and then 2 mL different biological media (FaSSIF, FeSSIF, SGF) and water were added into each compound respectively, then mixed homogeneously to form a suspension. The suspension was detected for its initial pH value. A magnet was added into the suspension, and placed on a magnetic stirring heater for stirring (at a temperature of 37° C., in dark). After stirring for 24 h, a sample was taken. The taken sample was quickly centrifuged, and the residual solid was detected by XRPD. The supernatant was detected for its pH value and diluted with a diluent into appropriate multiple, then measured with HPLC for its concentration.
FaSSIF: 1. 0.042 g sodium hydroxide, 0.3438 g sodium dihydrogen phosphate and 0.6186 g sodium chloride were weighed, added into 90 mL purified water, and homogeneously mixed, then, the mixture was adjusted with 1 N hydrochloric acid or 1 N sodium hydroxide to pH=6.5, and diluted into a constant volume of 100 mL with purified water; 2. 50 mL of the buffer described above was taken, and 0.224 g commercially available powder (Biorelevant.com) of FaSSIF/FeSSIF/FaSSGF was added thereto, the mixture was stirred to dissolve, and diluted with purified water to a constant volume of 100 mL.
FeSSIF: 1. 0.404 g sodium hydroxide, 0.865 g glacial acetic acid, and 1.1874 g sodium chloride were weighed, added into 90 mL purified water, and homogeneously mixed, then, the mixture was adjusted with 1 N hydrochloric acid or 1 N sodium hydroxide to pH=5.0, and diluted with purified water to a constant volume of 100 mL, 2. 50 mL of the buffer described above was taken, and 1.12 g commercially available powder (Biorelevant.com) of FaSSIF/FeSSIF/FaSSGF was added thereto, the mixture was stirred to dissolve, and diluted with purified water to a constant volume of 100 mL.
FaSSGF (SGF): 1. 0.2 g sodium chloride was weighed, added into 90 mL purified water, and mixed homogeneously, the mixture was adjusted with 1 N hydrochloric acid to pH=1.8, and diluted with purified water to a constant volume of 100 mL, and stood at room temperature.

[1] = SGF (FaSSGF), pH 1.8, simulated gastric fluid, thermodynamic from solid, SGF
[2] = pH 5, thermodynamic from solid, FeSSIF
[3] = pH 6.5, thermodynamic from solid, FaSSIF
[4] = thermodynamic from solid, Water

Row | Compound | Status (24 h) (FaSSIF) | solubility in three types of biological media, conclusion in words (FaSSIF, FeSSIF, SGF) | Status (24 h) (FeSSIF) | solubility at 24 h [1] [mg/mL] | Status (24 h) (SGF) | Status (24 h) (Water) | solubility at 24 h [2] [mg/mL] | solubility at 24 h [3] [mg/mL] | pH 24 hours (FaSSIF) | pH 24 hours (FeSSIF) | pH 24 hours (SGF) | pH 24 hours (Water) | pH 0 hour (suspension in FaSSIF) | pH 0 hour (suspension in FeSSIF) | pH 0 hour (suspension in SGF) | pH 0 hour (suspension in Water) | solubility at 24 h [4] [mg/mL]
1 | C=CC(=O)N[C@H]1COC[C@H]1Nc1ncc(/C=C(\F)c2c(Cl)c(OC)cc(OC)c2Cl)cn1 [Crystal Form B] | Suspension | good solubility | Suspension | 0.014 | Suspension | Suspension | 0.284 | 0.041 | 7.10 | 5.18 | 2.48 | 7.30 | 7.04 | 4.98 | 2.21 | 8.34 | 0.007
2 | C=CC(=O)N[C@H]1COC[C@H]1Nc1ncc(/C=C(\F)c2c(Cl)c(OC)cc(OC)c2Cl)cn1.CS(=O)(=O)O [Crystal Form E] | Suspension | good solubility | Suspension | 0.041 | Suspension | Suspension | 0.358 | 0.036 | 6.81 | 5.11 | 2.31 | 2.74 | 6.97 | 4.92 | 2.17 | 3.50 | 0.1
